Entries after “also recorded” stand apart in the source; their conditions may differ.
Assays:
[1] = system: LNCaP prostate cancer cells; experiment: 3H-thymidine incorporation assay, APH-0701 vs naked AMPI-109; type: cell-based
Procedure: Antiproliferative activities in these cells were measured by ^3H-thymidine incorporation assay.

[2] = Maximum tolerated dose of AMPI-109 in DU-145 tumor-bearing SCID mice; type: in vivo
Procedure: DU-145 prostate cancer cells (ATCC, Manassas, Va.) were grown in culture, and then approximately 5 million cells/animal was injected under the skin in the flank area of SCID mice (Charles River). Tumors grew in 2-3 weeks, and when they reached a size of approximately 1 cm^3, they were injected with 0.1, 0.5 and 1 μg/kg dose of AMPI-109 (in 5% […] in sesame oil) intraperitoneally. Dosing levels were limited by concentrations and volumes. Each group had six mice. Dosing was carried out every third day and weight of each mouse was recorded.

[3] = system: DU-145 human prostate cancer cells; experiment: DU-145 xenograft efficacy, i.p. administration (Example 10); type: in vivo, athymic mice
Procedure: Male, athymic mice (average weight 20 gm) were fed normal rat chow and water ad libitum. They were inoculated with DU 145 cells, grown in culture in their flanks under light anesthesia. When the tumor size grew to approximately 100 mm^3 the animals were randomized into groups of ten (10) tumor-bearing animals, and they were given AMPI-109 (0.1 μg/kg), calcitriol (0.5 and 1 μg/kg), and vehicle (5% DMA in sesame oil) by intraperitoneal injection (i.p.) on every third day (when body weights were determined); and one group was left untreated. Treatment started on day 11 and stopped on day 30; and they were left untreated for two (2) additional days when they were sacrificed.

[4] = system: DU-145 human prostate cancer cells; experiment: DU-145 xenograft efficacy, p.o. administration (Example 11); type: in vivo, nude mice
VDR = VDR (Homo sapiens, UniProt P11473); experiment: Covalent linking to and activation of VDR; type: biochemical; settings: covalent link in ligand-binding pocket via a cysteine residue
Chain of VDR (P11473 whole entry): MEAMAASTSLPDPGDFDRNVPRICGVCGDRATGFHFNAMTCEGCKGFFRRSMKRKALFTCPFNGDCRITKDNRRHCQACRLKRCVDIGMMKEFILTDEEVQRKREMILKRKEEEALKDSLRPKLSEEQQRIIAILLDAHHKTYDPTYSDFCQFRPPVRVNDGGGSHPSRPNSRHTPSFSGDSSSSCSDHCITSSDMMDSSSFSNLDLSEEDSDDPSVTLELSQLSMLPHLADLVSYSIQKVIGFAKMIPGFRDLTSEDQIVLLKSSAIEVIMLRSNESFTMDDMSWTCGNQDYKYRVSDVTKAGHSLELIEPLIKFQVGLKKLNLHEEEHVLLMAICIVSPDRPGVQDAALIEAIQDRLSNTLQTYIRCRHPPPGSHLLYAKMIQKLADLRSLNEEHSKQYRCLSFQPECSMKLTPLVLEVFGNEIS

[5] = system: LNCaP, PC-3 and DU-145 prostate cancer cells; experiment: Anti-proliferation and apoptosis in prostate cancer cells (summary); type: cell-based
[6] = system: DU-145 human prostate cancer cells; experiment: DU-145 xenograft, AMPI-109 vs APH-0701 (Example 12); type: in vivo, athymic mice; settings: 0.5 μg/Kg
Procedure: Male, athymic mice (average weight 20 gm) were fed normal rat chow and water ad libitum. They were inoculated with DU-145 cells (5×10^6 cells, dispersed in 100 μl PBS) in the flank.

Serum-stability study = type: in vitro ADME; settings: pooled human serum, 37° C., 60 minutes, HPLC
Procedure: The organic layer was dried in a stream of nitrogen and the residue was analyzed by HPLC (5% H2O— 95% methanol 1.5 ml/min, 265 nm detection, Agilent C18 column).

24-OHase = experiment: Message for 24-OHase in LNCaP cells; type: cell-based
normal kidney cells = experiment: 3H-thymidine incorporation assay in normal kidney cells; type: cell-based; settings: 10^−6M
[7] = Stability study in liver homogenate; type: in vitro ADME, mouse; settings: 37° C., 60 minutes, HPLC
Procedure: Pieces of liver, obtained from normal mice were minced and homogenized in phosphated saline with a polytron. […] The organic layer was dried in a stream of nitrogen and the residue was analyzed by HPLC (as above).

[8] = system: RCC 54 kidney cancer cells; settings: 7.5×10^−7 to 10^−6M
Procedure: In a typical assay cells were grown to 50-60% confluence in 24-well plates in respective media containing 5% FBS, and serum starved for 20 hours, followed by treatment with various agents (in 0.1% ethanolic solution) or ethanol (vehicle) in serum-containing medium for 16 hours. After the treatment media was removed from the wells and replaced with media containing ^3H-thymidine (Sigma, 0.1 μCi) per well, and the cells were incubated for 3 hours at 37° C. After this period media was removed by aspiration and the cells were washed thoroughly (3×0.5 ml) with PBS. Ice-cold 5% perchloric acid solution (0.5 ml) was added to each well and the cells were incubated on ice for 20 minutes. After this incubation, perchloric acid was removed by aspiration, replaced with 0.5 ml of fresh perchloric acid solution and the cells were incubated at 70° C. for 20 minutes. Solution from each well was mixed with scintillation fluid and counted in a liquid scintillation counter. There were eight (8) wells per sample; statistics was carried out by Student's t test.

DU-145 cells = experiment: 3H-thymidine incorporation assay in DU-145 cells; type: cell-based, human

## C=C1/C(=C\C=C2/CCC[C@@]3(C)C2CC[C@@H]3C(C)CCCC(C)(C)O)C[C@@H](OC(=O)CBr)CC1O (stereo partly drawn) [AMPI-109, 1α,25-dihydroxyvitamin D3-3-bromoacetate]
[1]
  growth of LNCaP cells: almost completely inhibited the growth of LNCaP cells
[2]; 1 μg/kg i.p. every third day
  mortality: All mice in the 1 μg/Kg dose died after three dosing
[2]; i.p., every third day, based on dosing
  relative MTD: ≤ 3 µg/kg
[3]; 0.1 μg/kg i.p.
  body weight: some reduction in body weight
[3]; 0.1 μg/kg i.p. every third day, day 11 to 30
  anti-tumor effect: strong anti-tumor effect
[3]; i.p., weight basis
  potency relative to calcitriol in reducing tumor-size: approximately 5 times
[4]; 0.5 μg/kg p.o. oral gavage
  anti-tumor effect: strong anti-tumor effect
[4]; mouse, in vivo
  potency in p.o.-mode relative to i.p.-mode (times less potent): 5 times
[4]; p.o., calcitriol 0.5 μg/kg and 1.0 μg/kg, AMPI-109 0.5 μg/kg
  body weight: did not cause any significant change in body weight
VDR
  VDR activation: constitutively activated VDR
[5]
  apoptosis: induced apoptosis
[5]; mole-per-mole basis
  anti-proliferative strength relative to calcitriol: significantly stronger anti-proliferative agent than calcitriol
[6]
  gross body-weights: not significantly different from control animals
[6]; every third day, day 7 to 42
  average size of tumors at the end of the experiment: ~475 mm^3
Serum-stability study
  stability in human serum: corresponds to the peak of a standard sample
24-OHase
  message for 24-OHase: up regulated
Normal kidney cells
  impact on normal kidney cells versus control: neither Calcitriol nor AMPI-109 had any statistically different impact
[7]
  stability in mouse liver homogenate: corresponds to the peak of a standard sample
[8]
  reduction of proliferation of RCC 54 kidney cancer cells: > 95%
DU-145 cells; 2.5×10^−7M to 10^−6M, 20 hours
  antiproliferative effect in DU-145 cells: strong and dose-dependent antiproliferative effect
DU-145 cells; 10^−6M, separate experiment
  anti-proliferative effect in DU-145 cells: strong anti-proliferative effect; also recorded: significantly stronger antiproliferative agent than EB-1089

Reference: patent US10258635B2, “Formulations and compositions of vitamin D analogs for treating and preventing cancer and other diseases” (priority 2013, dated 2019)
